Results from US20200131144A1, “AMINE OR (THIO)AMIDE CONTAINING LXR MODULATORS” (Phenex-FXR GmbH, priority 2017, published 2020).

Tests used:
LXRα full length (FL) = target: T1, LXRα full length (FL) (Homo sapiens, UniProt Q13133); test: LXR Gal4 reporter transient transfection assay, mammalian two-hybrid, FL-M2H Gal4α; format: cell-based; conditions: HEK293 cells; inverse agonist unless *
T1 construct: the full length (FL) proteins of LXRα (amino acids 1-447); NP005684; expressed in transfected cells; host or cells: HEK293
T1 sequence (Q13133 1-447): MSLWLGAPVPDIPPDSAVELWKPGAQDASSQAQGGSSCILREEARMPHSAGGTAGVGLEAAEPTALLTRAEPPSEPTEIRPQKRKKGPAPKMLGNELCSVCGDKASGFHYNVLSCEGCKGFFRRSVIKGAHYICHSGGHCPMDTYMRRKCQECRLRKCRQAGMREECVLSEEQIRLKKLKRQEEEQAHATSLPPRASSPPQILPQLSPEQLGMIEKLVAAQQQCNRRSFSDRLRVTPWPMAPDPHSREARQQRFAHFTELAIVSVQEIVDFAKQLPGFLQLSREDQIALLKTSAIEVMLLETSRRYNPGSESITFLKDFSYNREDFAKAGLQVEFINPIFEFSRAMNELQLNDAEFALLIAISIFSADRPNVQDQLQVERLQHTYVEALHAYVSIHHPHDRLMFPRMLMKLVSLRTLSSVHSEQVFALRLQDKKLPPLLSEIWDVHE
Method in brief: (§1)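 Mammalian two-hybrid read-out: interaction of LXRα or LXRβ (full length or ligand-binding domain, NFkB activation-domain fusions) with GAL4-fused SRC1 or NCoR domains drives GAL4-responsive firefly luciferase in HEK293 cells, normalised by Renilla cotransfection. Compounds given 4 h after transfection, ≤0.2% vehicle, cells lysed after 16 h.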

LXRβ full length (FL) = target: T2, LXRβ full length (FL) (Homo sapiens, UniProt P55055, INS174Q); test: LXR Gal4 reporter transient transfection assay, mammalian two-hybrid, FL-M2H Gal4β; format: cell-based; conditions: HEK293 cells; inverse agonist unless *
T2 construct: the full length (FL) proteins of LXRα (amino acids 1-447); NP005684; NP009052; expressed in transfected cells; host or cells: HEK293
T2 sequence (P55055 with tags, fused parts or gaps INS174Q): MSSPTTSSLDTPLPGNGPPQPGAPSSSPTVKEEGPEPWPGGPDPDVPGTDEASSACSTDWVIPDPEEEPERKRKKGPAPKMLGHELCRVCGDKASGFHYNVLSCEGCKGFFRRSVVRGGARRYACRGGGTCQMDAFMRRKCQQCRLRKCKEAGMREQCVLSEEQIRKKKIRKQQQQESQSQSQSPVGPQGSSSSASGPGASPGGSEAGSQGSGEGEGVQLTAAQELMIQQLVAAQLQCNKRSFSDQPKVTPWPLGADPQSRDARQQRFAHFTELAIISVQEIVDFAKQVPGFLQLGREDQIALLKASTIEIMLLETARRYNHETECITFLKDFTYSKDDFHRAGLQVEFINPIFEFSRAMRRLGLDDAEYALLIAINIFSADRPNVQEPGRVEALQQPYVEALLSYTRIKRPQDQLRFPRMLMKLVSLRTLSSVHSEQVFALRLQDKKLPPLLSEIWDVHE
Method in brief: as §1

[1] = Pharmacokinetics in mice after single oral dosing, blood and liver exposure by LC-MS; format: in vivo, mice (C57/bl6/J)
Description: The pharmacokinetics of the compounds was assessed in mice after single dosing and oral administrations. Blood and liver exposure was measured via LC-MS.
The study design was as follows:
Animals: C57/bl6/J (Janvier) males Diet: standard rodent chow Dose: 20 mg/kg Animal handling: animals were withdrawn from food at least 12 h before administration Design: single dose oral administration, n=3 animals per group Sacrifice: at stated time point (4, 12 or 24 h) after administration Bioanalytics: LC-MS of liver and blood samples

[2] = target: T3, GST-LXRβ ligand-binding domain (Homo sapiens, UniProt P55055, INS174Q); test: TR-FRETβ activity assay (NCoA3 coactivator peptide recruitment); format: biochemical; conditions: 1 μM 24(S)-25-epoxycholesterol as prestimulating agonist; inverse agonist unless *
T3 construct: amino acids 156-461; NP009052; made in house; host or cells: E. coli
T3 sequence (P55055 with tags, fused parts or gaps INS174Q limits assumed): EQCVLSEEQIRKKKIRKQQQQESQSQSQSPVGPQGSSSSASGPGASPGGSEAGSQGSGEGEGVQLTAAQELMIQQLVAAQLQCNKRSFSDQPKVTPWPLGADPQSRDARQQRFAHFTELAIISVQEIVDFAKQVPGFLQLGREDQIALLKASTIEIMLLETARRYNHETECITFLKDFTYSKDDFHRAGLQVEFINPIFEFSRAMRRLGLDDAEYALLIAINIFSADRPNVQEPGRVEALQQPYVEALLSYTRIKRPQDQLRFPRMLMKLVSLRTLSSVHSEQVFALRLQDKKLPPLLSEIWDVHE
Method in brief: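 Coactivator recruitment read as TR-FRET (ex 340, em 615 and 665 nm) after 1 h equilibration at 4° C, in triplicate. Mix held 76 nM GST-tagged LXRβ LBD (aa 156-461, E. coli), 400 nM biotin-NCoA3 peptide, Tb-cryptate anti-GST, streptavidin-XL665, 240 mM KCl buffer.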

[3] = male, C57/bl6/J, mouse, liver/blood, single oral dose 20 mg/kg, time point 4 h, read-out: liver/blood ratio
[4] = single oral dose 20 mg/kg, time point 4 h
[5] = single oral dose 20 mg/kg, time point 12 h

EC50 (LXRα full length (FL)) | EC50 (LXRβ full length (FL)) | Kp at 4 h [1, 3] | blood/plasma exposure [1, 4] | liver exposure [1, 4] | EC50 [2] | Kp at 12 h ([1]; male, C57/bl6/J, mouse, liver/blood, single oral dose 20 mg/kg, time point 12 h, read-out: liver/blood ratio) | blood/plasma exposure [1, 5] | liver exposure [1, 5] | Compound | oral bioavailability ([1]; single dose oral administration, 20 mg/kg)
< 100 nM | < 100 nM | 7.6 | 0.08 µM | 0.61 µM | < 100 nM |  |  |  | Cc1ccc2ccccc2c1C(=O)N(Cc1ccc(-c2cccc(C(C)(C)C(=O)NO)c2)cc1)Cc1ccc(C(F)(F)F)o1 [5/3] | 
1000 to 10000 nM | 100 to 1000 nM | 44 | 0.01 µM | 0.42 µM | 1000 to 10000 nM |  |  |  | N#Cc1ccc2ccccc2c1CN(Cc1ccc(-c2cccc(S(=O)(=O)CC(=O)O)c2)cc1)Cc1ccc(C(F)(F)F)o1 [7/7] | 
 |  |  |  |  |  | 2.4 | 0.34 µM | 0.83 µM | Cc1cc(C)c(CN(Cc2ccc(-c3cncc(S(=O)(=O)CC(=O)O)c3)cc2)Cc2ccc(C(F)(F)F)o2)c(C)c1 [12/2] | 
1000 to 10000 nM | 100 to 1000 nM | 64 | 1.0 µM | 64 µM | 100 to 1000 nM |  |  |  | Cc1cc(C)c(CN(Cc2ccc(-c3cc(F)c(CO)c(S(=O)(=O)CC(=O)O)c3)cc2)Cc2ccc(C(F)(F)F)o2)c(C)c1 [20/1] | 
100 to 1000 nM | 100 to 1000 nM | 178 | 0.01 µM | 1.41 µM | 1000 to 10000 nM |  |  |  | Cc1ccc2ccccc2c1CN(Cc1ccc(C(F)(F)F)o1)Cc1ccc(-c2cncc(S(=O)(=O)CC(=O)O)c2)cc1Cl [26/8] | 
100 to 1000 nM | 100 to 1000 nM |  |  |  | 100 to 1000 nM |  |  |  | Cc1cc(C)c(CN(Cc2ccc(-c3cccc(S(=O)(=O)CC(=O)NO)c3)cc2)Cc2ccc(C(F)(F)F)o2)c(C)c1 [Example 5, N-Hydroxy-2-((4′-((((5-(trifluoromethyl)furan-2-yl)methyl)(2,46-trimethylbenzyl)amino)methyl)-[1,1′-biphenyl]-3-yl)sulfonyl)acetamide] | 
100 to 1000 nM | 100 to 1000 nM |  |  |  | 100 to 1000 nM |  |  |  | CONC(=O)CS(=O)(=O)c1cccc(-c2ccc(CN(Cc3ccc(C(F)(F)F)o3)Cc3c(C)cc(C)cc3C)cc2)c1 [Example 5/1] | 
 |  | 45 | 0.20 µM | 9.08 µM |  |  |  |  | COC(=O)CS(=O)(=O)c1cccc(-c2ccc(CN(Cc3ccc(C(F)(F)F)o3)C(C)c3cccc4ccccc34)cc2)c1 (stereo not shown) [Example 6, Methyl 2-((4′-(((1-(naphthalen-1-yl)ethyl)((5-(trifluoromethyl)furan-2-yl)methyl)amino)methyl)-[1,1′-biphenyl]-3-yl)sulfonyl)acetate] | 
100 to 1000 nM | 100 to 1000 nM |  |  |  | 1000 to 10000 nM |  |  |  | Cc1cc(C)c(CN(Cc2ccc(C(F)(F)F)o2)Cc2ccc(-c3cccc(S(=O)(=O)CC(=O)O)c3)cc2F)c(C)c1 [Example 15, 2-((3′-Fluoro-4′-((((5-(trifluoromethyl)furan-2-yl)methyl)(2,4,6-trimethylbenzyl)amino)methyl)-[1,1′-biphenyl]-3-yl)sulfonyl)acetic acid] | 
1000 to 10000 nM | 100 to 1000 nM |  |  |  | > 10000 nM |  |  |  | Cc1ccc2ccccc2c1C(=O)N(Cc1ccc(C(F)(F)F)o1)Cc1ccc(-c2cccc(C(C)(C)C(=O)O)c2)cc1C(N)=O [Example 17] | 
1000 to 10000 nM | 100 to 1000 nM |  |  |  | > 10000 nM |  |  |  | COc1cc(CN(Cc2ccc(C(F)(F)F)o2)Cc2c(C)ccc3ccccc23)ccc1-c1cc(F)c(CO)c(S(=O)(=O)CC(=O)O)c1 [Example 22, 2-((5-Fluoro-4-(hydroxymethyl)-2′-methoxy-4′-((((2-methylnaphthalen-1-yl)methyl)((5-(trifluoromethyl)furan-2-yl)methyl)amino)methyl)-[1,1′-biphenyl]-3-yl)sulfonyl)acetic acid] | 
100 to 1000 nM | 1000 to 10000 nM |  |  |  | > 10000 nM |  |  |  | Cc1ccc2ccccc2c1C(=O)N(Cc1ccc(-c2cccc(S(=O)(=O)CC(=O)O)c2)cc1)Cc1ccc(C(F)(F)F)n1C [Example 28, 2-((4′-((2-Methyl-N-((1-methyl-5-(trifluoromethyl)-1H-pyrrol-2-yl)methyl)-1-naphthamido)methyl)-[1,1′-biphenyl]-3-yl)sulfonyl)acetic acid] | 
< 100 nM | < 100 nM |  |  |  | 100 to 1000 nM |  |  |  | Cc1ccc2ccccc2c1C(=O)N(Cc1ccc(-c2cccc(C(C)(C)c3noc(=O)[nH]3)c2)cc1)Cc1ccc(C(F)(F)F)o1 [Example 29, 2-Methyl-N-((3′-(2-(5-oxo-4,5-dihydro-1,2,4-oxadiazol-3-yl)propan-2-yl)-[1,1′-biphenyl]-4-yl)methyl)-N-((5-(trifluoromethyl)furan-2-yl)methy)-1-naphthamide] | 
100 to 1000 nM | 100 to 1000 nM |  |  |  | 100 to 1000 nM |  |  |  | Cc1ccc2ccccc2c1C(=O)N(Cc1ccc(-c2cccc(S(=O)(=O)Cc3nnn[nH]3)c2)cc1)Cc1ccc(C(F)(F)F)o1 [Example 30, N-((3′-(((1H-Tetrazol-5-yl)methyl)sulfonyl)-1,1′-biphenyl-4-yl)methyl)-2-methyl-N-((5-(trifluoromethyl)furan-2-yl)methyl)-1-naphthamide] | 
< 100 nM | < 100 nM |  |  |  | 1000 to 10000 nM |  |  |  | CCOC(=O)OC(OC(=O)C(C)(C)c1cccc(-c2ccc(CN(Cc3ccc(C(F)(F)F)o3)C(=O)c3c(C)ccc4ccccc34)cc2)c1)C(C)C (stereo not shown) [Example 31, 1-((Ethoxycarbonyl)oxy)-2-methylpropyl 2-methyl-2-(4′-((2-methyl-N-((5-(trifluoromethyl)furan-2-yl)methyl)-1-naphthamido)methyl)-[1,1′-biphenyl]-3-yl)propanoate] | 
100 to 1000 nM | 100 to 1000 nM |  |  |  | > 10000 nM |  |  |  | CNc1nc(-c2cccc(C(C)(C)C(=O)O)c2)ccc1CN(Cc1ccc(C(F)(F)F)o1)C(=O)c1c(C)ccc2ccccc12 [Example 32, 2-Methyl-2-(3-(5-((2-methyl-N-((5-(trifluoromethyl)furan-2-yl)methyl)-1-naphthamido)methyl)-6-(methylamino)pyridin-2-yl)phenyl)propanoic acid] | 
< 100 nM | < 100 nM |  |  |  | 100 to 1000 nM |  |  |  | Cc1nc2cccnc2c(C(=O)N(Cc2ccc(-c3cccc(C(C)(C)C(=O)O)c3)cc2)Cc2ccc(C#N)o2)c1C [Example 33/1] | 
1000 to 10000 nM | 1000 to 10000 nM |  |  |  | 1000 to 10000 nM |  |  |  | Cc1nc2ccc(=O)[nH]c2c(C(=O)N(Cc2ccc(-c3cccc(C(C)(C)C(=O)O)c3)cc2)Cc2ccc(C(F)(F)F)o2)c1C [Example 36, 2-(4′-((2,3-Dimethyl-6-oxo-N-((5-(trifluoromethyl)furan-2-yl)methyl)-5,6-dihydro-1,5-naphthyridine-4-carboxamido)methyl)-[1,1′-biphenyl]-3-yl)-2-methylpropanoic acid] | 
 |  |  |  |  |  |  |  |  | CCOC(=O)c1ccc(CN(Cc2ccc(-c3cccc(S(C)(=O)=O)c3)cc2)S(=O)(=O)c2c(C)cc(C)cc2C)o1 [SR9238, reference compound] | not orally bioavailable and hepatoselective
